# Legend:
# [1] = tested on: mouse model of AngII-induced myocardial fibrosis; assay: AngII-induced myocardial fibrosis mouse model, 4 weeks, echocardiography, wild-type mice; format: in vivo
# Experimental: Four weeks after implantation, cardiac ultrasound was performed, mice were euthanized, and hearts were collected. A similar set-up was used for the 1-week study (Alzet, model 1007D) in male mice (n = 9-10 mice in every group).
# Echocardiography was performed using the Vevo F2-LAZRX (FUJIFILM VisualSonics) and UHF57x probe. Mice were anesthetized with 1.5% isoflurane (Alvira, BE-V512222). Parasternal long-axis B-mode images and M-mode images were obtained and analyzed using VevoLAB software (FUJIFILM VisualSonics, Version 5.7.1). For the AngII experiments, measurements were obtained through analysis of the short-axis M-mode. For the MI experiments, measurements were obtained through analysis of the parasternal long-axis B-mode, of which the area and end-volume of the left ventricular cavity in diastole and systole were determined by tracing the endocardial border. Acquisitions, measurements and analyses were performed blinded.
# Supplementary Table 2. Echocardiographic parameters. Echocardiographic parameters obtained through the analysis of the M-mode short-axis views. (a) Male and (b) female wild-type mice treated […]
# mice in EF-1 group). (c) Male wild-type mice treated with AngII and NA-1 (n=5 male mice in Ctrl and AngII/Veh group, n=4 male mice in AngII/NA -1 group). (d) Comparison between wild-type and Erbb4-null mice (n=10 male and female wild -type mice and n=6 male and female Erbb4-null mice). (e) Male […]
# Echocardiographic parameters obtained through left ventricular trace analysis of the parasternal long-axis obtained in B-mode in female wild-type mice that underwent a sham or MI operation: mice with […]
# in MI/EF-1 group). (g) Echocardiographic parameters obtained through left ventricular trace analysis of the parasternal long-axis obtained in B-mode in male wild-type mice that underwent a sham or MI […]
# male mice in MI/Veh group for T2 and T4). Echocardiographic parameters were measured weekly (indicated by ‘T’). All data are presented as mean (value of individual mice) ± SD, two-tailed unpaired […]
# 1 groups. Source data are provided as a Source Data file. AngII, angiotensin II; ANOVA, analysis of variance; Ctrl, control; DOX, doxorubicin; EF, ejection fraction; ERBB4, erythroblastic leukemia viral oncogene homolog 4; FS, fractional shortening; IVSd, interventricular septum thickness in diastole; IVSs, interventricular septum thickness in systole; LVIDd, left ventricular internal diameter in diastole; LVIDs, left ventricular internal diameter in systole; LVPWd, left ventricular posterior wall thickness in diastole; LVPWs, left ventricular posterior wall thickness in systole; MI, myocardial infarction; NA, non-activating pharmacophore-containing compound; SD, standard variation; Veh, vehicle.
# [2] = tested on: iAMs; assay: Bulk RNA sequencing of cardiomyogenically differentiated iAMs; format: cell-based, rat; conditions: EF-1 32 µM, 16 h, log2-fold change ≥0.58, P adj <0.05
# Experimental: iAMs were seeded at a density of 6 ×10^6 cells/mL in differentiation medium in 75-cm^2 cell culture flasks (Greiner Bio-One, 658175) and incubated for 9 days (d0 = day of seeding). HCF were seeded at a density of 3 × 10^6 cells/mL in fibroblast medium in 75-cm^2 cell culture flasks. […] Next, cells were lysed using 350 µL buffer RLT (Qiagen) supplemented with β-mercaptoethanol (100:1; Merck, 444203). Total RNA was isolated using the RNeasy Micro Kit (Qiagen, 74104) according to the manufacturer’s protocol, with an extra step of DNase digestion. The concentration and quality of RNA were determined using a Qubit fluorometer (Thermo Fisher Scientific) and 2100 Agilent BioAnalyzer (Agilent Technologies), respectively. Samples with an RNA integrity number >7 were used for library preparation. Sequencing libraries were prepared by Genewiz/Azenta (Leipzig) on cDNA prepared from polyadenylated mRNA. Libraries were sequenced using a NovaSeq 6000 (Illumina) with a read length of 2 ×150 bp.
# Gene expression was quantified at the transcript level using Salmon (v1.10.0)[60], with the validatMappings and -gcBias parameters switched on, to the Rnor_6.0 or GRCh38 transcriptome. […] Functional enrichment of DEGs was determined using a hypergeometric test against the Gene Ontology database by using the ClueGO (v2.5.7)[64] module of Cytoscape (v3.9.1)[65] with Benjamini–Hochberg adjusted (FDR) P < 0.05. […]
# [3] = Female wild-type mice, AngII/EF-1
# [4] = Male wild-type mice, AngII/EF-1
# [5] = Male wild-type mice, EF-1 without AngII
# [6] = female wild-type mice, AngII/EF-1, 4 weeks, mean ± SD
# [7] = male wild-type mice, AngII + compound 2 mg/kg/day, 4 weeks, mean ± SD
# [8] = male wild-type mice, EF-1 group without AngII, 4 weeks, mean ± SD
# [9] = Male wild-type mice, AngII/NA-1
smiles,measurement,setting,value
O=C(NC1CC1)C(Sc1nc2ccccc2c(=O)n1C1CCCC1)c1ccccc1 (centres unmarked) [EF-1],effect on cardiac dimensions on ultrasound (in words),"[1]; AngII model, both sexes",did not significantly alter cardiac dimensions
same,FS,[1]; [3],11.5 ± 5.5%
same,IVSd,[1]; [3],0.53 ± 0.07 mm
same,IVSs,[1]; [3],0.7 ± 0.1 mm
same,LVIDd,[1]; [3],4.2 ± 0.3 mm
same,LVIDs,[1]; [3],3.7 ± 0.4 mm
same,LVPWd,[1]; [3],0.5 ± 0.1 mm
same,LVPWs,[1]; [3],0.6 ± 0.1 mm
same,FS,[1]; [4],16.6 ± 3.6%
same,IVSd,[1]; [4],0.8 ± 0.1 mm
same,IVSs,[1]; [4],1.1 ± 0.2 mm
same,LVIDd,[1]; [4],4.4 ± 0.3 mm
same,LVIDs,[1]; [4],3.7 ± 0.4 mm
same,LVPWd,[1]; [4],0.8 ± 0.2 mm
same,LVPWs,[1]; [4],0.9 ± 0.2 mm
same,FS,[1]; [5],18.5 ± 5.1%
same,IVSd,[1]; [5],0.9 ± 0.1 mm
same,IVSs,[1]; [5],1.2 ± 0.1 mm
same,LVIDd,[1]; [5],4.2 ± 0.3 mm
same,LVIDs,[1]; [5],3.4 ± 0.3 mm
same,LVPWd,[1]; [5],0.75 ± 0.03 mm
same,LVPWs,[1]; [5],0.9 ± 0.1 mm
same,FS,[1]; [6],11.5 ± 5.5%
same,IVSd,[1]; [6],0.53 ± 0.07 mm
same,IVSs,[1]; [6],0.7 ± 0.1 mm
same,LVIDd,[1]; [6],4.2 ± 0.3 mm
same,LVIDs,[1]; [6],3.7 ± 0.4 mm
same,LVPWd,[1]; [6],0.5 ± 0.1 mm
same,LVPWs,[1]; [6],0.6 ± 0.1 mm
same,FS,[1]; [7],16.6 ± 3.6%
same,IVSd,[1]; [7],0.8 ± 0.1 mm
same,IVSs,[1]; [7],1.1 ± 0.2 mm
same,LVIDd,[1]; [7],4.4 ± 0.3 mm
same,LVIDs,[1]; [7],3.7 ± 0.4 mm
same,LVPWd,[1]; [7],0.8 ± 0.2 mm
same,LVPWs,[1]; [7],0.9 ± 0.2 mm
same,FS,[1]; [8],18.5 ± 5.1%
same,IVSd,[1]; [8],0.9 ± 0.1 mm
same,IVSs,[1]; [8],1.2 ± 0.1 mm
same,LVIDd,[1]; [8],4.2 ± 0.3 mm
same,LVIDs,[1]; [8],3.4 ± 0.3 mm
same,LVPWd,[1]; [8],0.75 ± 0.03 mm
same,LVPWs,[1]; [8],0.9 ± 0.1 mm
same,number of significantly downregulated genes compared to Veh,[2],1120
same,number of significantly upregulated genes compared to Veh,[2],354
Cc1sc2nc(SC(C)C(=O)NCc3ccc4c(c3)OCO4)n(-c3ccccc3)c(=O)c2c1C (centres unmarked) [NA-1],FS,[1]; [9],18.1 ± 5.1%
same,IVSd,[1]; [9],1.0 ± 0.2 mm
same,IVSs,[1]; [9],1.4 ± 0.2 mm
same,LVIDd,[1]; [9],4.3 ± 0.7 mm
same,LVIDs,[1]; [9],3.5 ± 0.7 mm
same,LVPWd,[1]; [9],0.9 ± 0.1 mm
same,LVPWs,[1]; [9],1.1 ± 0.3 mm
same,FS,[1]; [7],18.1 ± 5.1%
same,IVSd,[1]; [7],1.0 ± 0.2 mm
same,IVSs,[1]; [7],1.4 ± 0.2 mm
same,LVIDd,[1]; [7],4.3 ± 0.7 mm
same,LVIDs,[1]; [7],3.5 ± 0.7 mm
same,LVPWd,[1]; [7],0.9 ± 0.1 mm
same,LVPWs,[1]; [7],1.1 ± 0.3 mm

# Source: paper PMC11724075, “Small-molecule-induced ERBB4 activation to treat heart failure” (Nature Communications, 2025)
